Data: patent US9988375B2, “Inhibitors of lysine gingipain” (priority 2014, dated 2018)
“Also recorded” adds a separate entry of the source. Where two headings read alike, the source gives them in different places.

Tests used:
[1] = target: T1, trypsin (Homo sapiens (Human), UniProt P07477); conditions: cited from earlier work
[2] = target: Kgp (Porphyromonas gingivalis (strain ATCC 33277 / DSM 20709 / CIP 103683 / JCM 12257 / NCTC 11834 / 2561), UniProt B2RLK2); conditions: cited from earlier work
[3] = tested on: differentiated SHSY-5Y cells; assay: Gingipain-induced death of differentiated SH-SY5Y cells; format: cell-based; conditions: 100 nM Kgp and/or RgpB for 24 hours
Method: SH-SY5Y neuroblastoma cells were cultured and differentiated in the presence of 5 uM retinoic acid based on established methods [Saberi S., et al. Cell Mol Neurobiol 2013. 33: 747-751]. Differentiation into neuronal cells was verified by observation of neurite outgrowth. The differentiated cells were exposed to 100 nM Kgp and/or RgpB for 24 hours, in the presence or absence of Kgp inhibitors. Results were recorded using a digital microscope camera (FIG. 1C, FIG. 2C). Gingipains are toxic to cells while COR compounds prevent the cytotoxicity.

[4] = target: lysine gingipain (Kgp) (Porphyromonas gingivalis (strain ATCC 33277 / DSM 20709 / CIP 103683 / JCM 12257 / NCTC 11834 / 2561), UniProt B2RLK2); assay: Lysine gingipain (Kgp) fluorogenic inhibition assay; format: biochemical
Method: The capacities of compounds of the present invention to inhibit the activity of lysine gingipain were measured in a fluorogenic assay similar to those described in Barret Biochemical Journal. 1980, 187(3), 909. The specific assay conditions were as follows. Buffer: pH=7.5, 100 mM Tris-HCl, 75 mM NaCl, 2.5 mM CaCl2, 10 mM cysteine, 1% DMSO after all additions. Protein: 0.1 nM Kgp, isolated from culture of Porphyromonas gingivalis, as described in Pike et al. J. Biol. Chem. 1994, 269(1), 406, and Potempa and Nguyen. Current Protocols in Protein Scienc. 2007, 21.20.1-21.20.27. Fluorogenic substrate: 10 uM Z-His-Glu-Lys-MCA. Time=90 minutes. Temperature=37° C. Each compound: 10 concentrations, starting at either 100 uM or 100 nM, with lower concentrations generated by serial 3-fold dilutions. By testing a range of concentrations for each compound, the concentration required to inhibit the activity of lysine gingipain by 50% (the “IC50”) was determined. Under the described assay conditions, signal-to-noise was excellent, and Z factor was greater than 0.6.
(§1) The inhibitory of activity of compounds described herein was tested against Kgp, RgpB, and trypsin.

[5] = tested on: abeta 42; assay: Brain abeta 42 ELISA in mice orally infected with P. gingivalis; format: in vivo, Balb/cJ mice; conditions: subcutaneously three times per day on days 21-42
From the text: Female Balb/cJ mice were obtained from Taconic and allowed to acclimate. 43-44 week old mice were challenged orally with 10^9 CFU W83 P. gingivalis or a P. gingivalis strain lacking expression of Kgp every other day for 42 days. Compound 2 or vehicle (2% DMSO) was given subcutaneously three times per day on days 21-42. On day 42 mice were sacrificed and the brain removed and frozen. A sample including hippocampal tissue was lysed in RIPA buffer with protease inhibitors and analyzed for Abeta42 expression with the Amyloid beta 42 ELISA Kit, Mouse (Life Technologies).

[6] = target: T1, trypsin; assay: Trypsin inhibition; format: biochemical
Method: as §1

[7] = target: RgpB (Porphyromonas gingivalis (strain ATCC BAA-308 / W83), UniProt P95493); assay: RgpB inhibition; format: biochemical
Method: as §1

[8] = tested on: SHSY5Y cells; assay: P. gingivalis-induced toxicity in SHSY5Y cells in vitro; format: cell-based; conditions: compared to the antibiotic moxifloxacin
[9] = 0.1 nM Kgp, 10 uM Z-His-Glu-Lys-MCA, 90 minutes, 37° C., pH 7.5, read-out: Kgp IC50 average

NCCC[C@H](NC(=O)C1CCCN(C(=O)CCc2ccccc2)C1)C(=O)c1nc2ccccc2s1 (mixture of isomers) [Compound A71561, 1-(3-phenylpropionyl)piperidine-3(R,S)-carboxylic acid [4-amino-1(S)-(benzothiazole-2-carbonyl)butyl]amide]
Ki [1]: 30 nM
Ki [2]: 0.9 nM

NCCCC[C@H](NC(=O)c1ccccc1)C(=O)c1nc2ccccc2s1 [Compound 1, N-[(1S)-5-amino-1-(1,3-benzothiazole-2-carbonyl)pentyl]benzamide]
prevention of gingipain-induced death of differentiated SHSY-5Y cells [3]: prevents; also recorded: effective at preventing cell death

NCCCC[C@H](NC(=O)[C@H]1CCCN(C(=O)CCc2ccccc2)C1)C(=O)c1nc2ccccc2s1 [Compound 3, (3S)—N-[(1S)-5-amino-1-(1,3-benzothiazole-2-carbonyl)pentyl]-1-(3-phenylpropanoyl)piperidine-3-carboxamide]
IC50 [4, 9]: 10 to 25 nM
IC50 ([4]; read-out: Kgp IC50): 10 to 25 nM
prevention of gingipain-induced death of differentiated SHSY-5Y cells [3]: does not

NCCCC[C@H](NC(=O)C1CCc2ccccc2C1)C(=O)c1nc2ccccc2s1 (stereo partly drawn) [Compound 32, N-[(1S)-5-amino-1-(1,3-benzothiazole-2-carbonyl)pentyl]tetralin-2-carboxamide]
IC50 [4, 9]: 1 to 10 nM

NCCCC[C@H](NC(=O)[C@@H]1CCCN(C(=O)CCc2ccccc2)C1)C(=O)c1nc2ccccc2s1 [Compound 4, (3R)—N-[(1S)-5-amino-1-(1,3-benzothiazole-2-carbonyl)pentyl]-1-(3-phenylpropanoyl)piperidine-3-carboxamide]
IC50 [4, 9]: 1 to 10 nM
IC50 ([4]; read-out: Kgp IC50): 1 to 10 nM
prevention of gingipain-induced death of differentiated SHSY-5Y cells [3]: prevents
prevention of gingipain-induced death of differentiated SHSY-5Y cells ([3]; listed as 2-(N—[N-(3-phenylpropanoyl)-(R)-nipecotinyl]-(R)-lysinyl)-benzothiazole): effective at preventing cell death

NCCCC[C@H](NC(=O)C1CCCCC1)C(=O)c1nc2ccccc2s1 [Compound 2, N-[(1S)-5-amino-1-(1,3-benzothiazole-2-carbonyl)pentyl]cyclohexanecarboxamide]
IC50 ([4]; read-out: Kgp IC50): 1 to 10 nM
prevention of gingipain-induced death of differentiated SHSY-5Y cells [3]: prevents; also recorded: more effective; also recorded: effective at preventing cell death
brain levels of abeta 42 (ELISA) [5]: resolved; also recorded: increase in abeta42 that was not apparently
IC50 [6]: 5000 nM

CC(=O)N1CCOC(C(=O)N[C@@H](CCCCN)C(=O)c2nc3ccccc3s2)C1 (stereo partly drawn) [Compound 29, 4-acetyl-N-[(1S)-5-amino-1-(1,3-benzothiazole-2-carbonyl)pentyl]morpholine-2-carboxamide]
IC50 [4, 9]: 10 to 25 nM

CC(=O)N1CCC[C@H](C(=O)N[C@H](CCCCN)C(=O)c2nc3ccccc3s2)C1 [Compound 10, (3S)-1-acetyl-N-[(1R)-5-amino-1-(1,3-benzothiazole-2-carbonyl)pentyl] piperidine-3-carboxamide]
IC50 [4, 9]: 10 to 25 nM

NCCCC[C@H](NC(=O)c1cccc(=O)[nH]1)C(=O)c1nc2ccccc2s1 [Compound 40, N-[(1S)-5-amino-1-(1,3-benzothiazole-2-carbonyl)pentyl]-6-oxo-1H-pyridine-2-carboxamide]
IC50 [4, 9]: 25 to 50 nM

NCCCC[C@H](NC(=O)c1cncs1)C(=O)c1nc2ccccc2s1 [Compound 38, N-[(1S)-5-amino-1-(1,3-benzothiazole-2-carbonyl)pentyl]thiazole-5-carboxamide]
IC50 [4, 9]: 10 to 25 nM

NCCCC[C@H](NC(=O)C1CCCC1)C(=O)c1ccccn1 [Compound 44, N-[(1S)-5-amino-1-(pyridine-2-carbonyl)pentyl]cyclopentanecarboxamide]
IC50 [4, 9]: > 250 nM

CC(=O)N1CCC[C@@H](C(=O)N[C@@H](CCCCN)C(=O)c2nc3ccccc3s2)C1 [Compound 9, (3R)-1-acetyl-N-[(1S)-5-amino-1-(1,3-benzothiazole-2-carbonyl)pentyl]piperidine-3-carboxamide]
IC50 [4, 9]: 1 to 10 nM

NCCCC[C@H](NC(=O)C1CCCO1)C(=O)c1nc2ccccc2s1 (single isomer, unassigned) [Compound 35]
IC50 [4, 9]: 1 to 10 nM

NCCCC[C@H](NC(=O)c1ccccn1)C(=O)c1nc2ccccc2s1 [Compound 12, N-[(1S)-5-amino-1-(1,3-benzothiazole-2-carbonyl)pentyl]pyridine-2-carboxamide]
IC50 [4, 9]: 50 to 100 nM

CC(=O)N1CCC[C@H](C(=O)N[C@@H](CCCCN)C(=O)c2nc3ccccc3s2)C1 [Compound 8, (3S)-1-acetyl-N-[(1S)-5-amino-1-(1,3-benzothiazole-2-carbonyl)pentyl] piperidine-3-carboxamide]
IC50 [4, 9]: 10 to 25 nM

NCCCC[C@H](NC(=O)C1CCCC1)C(=O)COc1c(F)c(F)cc(F)c1F [Compound 43, N-[(1S)-5-amino-1-[2-(2,3,5,6-tetrafluorophenoxy)acetyl]pentyl]cyclo-pentanecarboxamide]
IC50 [4, 9]: ≤ 1 nM
lysine gingipain IC50 value ([4]; in words): sub-nanomolar
IC50 [7]: > 475 nM
protection of SHSY5Y cells from P. gingivalis-induced toxicity [8]: protects
